Numbered stars: 1 amine (or outer) side, 2 acyl side, 3 side chain; on linkers, the order of the positions; unused ones are H or OH. Side chains are listed from the residue outwards. Peptide text beside a SMILES is read from it. * marks the point of attachment. C18 diacid = O=C(O)CCCCCCCCCCCCCCCCC(=O)*; γGlu = O=C(O)[C@H](CCC(=O)[*:2])N[*:1]; AEEA = NCCOCCOCC(=O)O
Legend:
[1] = biological target: T1, glucagon receptor (Homo sapiens, UniProt P47871); assay: Assay (I) Glucagon activity (cAMP biosensor, FLIPR); format: cell-based
T1 construct: expressed in transfected cells

[2] = Assay (X) Chemical stability assessment by RP-UPLC; format: physicochemical; settings: pH 8.15, 14 days at 37° C. vs 5° C., 333 μM
Method: Chemical Stability Assessment
Lyophilized samples were dissolved in buffer (see below for detailed compositions) to a final concentration of 333 μM and a pH of 8.15, and were incubated for 14 days at 5° C. and 37° C. followed by RP-UPLC analysis. Purity was defined as the area percentage of the main peak in relation to the total area of all integrated peaks in each chromatogram. Purity loss after 14 days at 37° C. was determined as the difference in purity between the samples incubated at 5° C. and 37° C., divided by the purity of the sample after incubation for 14 days at 5° C.
RP-UPLC analysis was performed using a Waters BEH130 2.1 mm×150 mm, 1.7 μm column operated at 50° C. and a flow rate of 0.4 mL/min using a mobile phase system consisting of typically A: 50 mM Phosphate, 10 w/w % Acetonitrile pH 3 and B: 80 v/v Acetonitrile. UV-detection was performed at 215 nm. The typical gradient profile used for most of the samples is shown below.
For some individual analogues eluting at substantially different retention times compared with the majority of analogues, some adjustments to the gradient profile were made to better enable purity assessment comparison across samples. Also the composition of the channel B mobile phase component was in some of the analyses exchanged for a 90 v/v % Acetonitrile solvent solution in an attempt to better handle carry-over of material from one injection to the next in the sequence. This was however compensated for by recalculating the gradient profile appropriately.
Buffer: • 50 mM Dinatriumphosphatdihydrat • 184 mM Propylenglycol • 58 mM Phenol • pH adjusted to 8.15 with H3PO4. In cases where pH was adjusted to 8.15 after re-suspension of analogues, 0.2 M NaOH was used. Assay (XI) Pharmacokinetic Study in Minipigs

T1 sequence (P47871 26-477): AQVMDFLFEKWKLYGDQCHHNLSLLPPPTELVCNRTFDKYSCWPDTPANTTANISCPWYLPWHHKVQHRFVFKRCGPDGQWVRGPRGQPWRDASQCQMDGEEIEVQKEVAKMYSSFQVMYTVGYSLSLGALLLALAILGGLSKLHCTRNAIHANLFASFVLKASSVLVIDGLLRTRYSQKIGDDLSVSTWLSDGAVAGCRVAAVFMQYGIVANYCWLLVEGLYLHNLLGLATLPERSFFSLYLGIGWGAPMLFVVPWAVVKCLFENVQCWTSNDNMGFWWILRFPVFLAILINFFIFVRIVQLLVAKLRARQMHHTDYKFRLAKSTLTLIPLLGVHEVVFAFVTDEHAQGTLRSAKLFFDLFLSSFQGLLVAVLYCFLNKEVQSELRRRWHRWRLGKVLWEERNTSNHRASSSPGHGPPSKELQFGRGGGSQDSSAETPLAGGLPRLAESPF

Row | SMILES | EC50 [1] [nM] | Chemical stability [Purity loss/14 days 37 C.] [2] [%]
1 | CC[C@H](C)[C@H](NC(=O)[C@H](CC(=O)O)NC(=O)[C@H](CC(C)C)NC(=O)[C@H](Cc1ccc(O)cc1)NC(=O)[C@H](CCCCN)NC(=O)[C@H](CO)NC(=O)[C@H](Cc1ccc(O)cc1)NC(=O)[C@H](CC(=O)O)NC(=O)[C@H](CO)NC(=O)[C@@H](NC(=O)[C@H](Cc1ccccc1)NC(=O)[C@@H](NC(=O)CNC(=O)[C@H](CCC(N)=O)NC(=O)[C@H](CO)NC(=O)[C@@H](N)Cc1c[nH]cn1)[C@@H](C)O)[C@@H](C)O)C(=O)N[C@@H](CCCNC(=N)N)C(=O)N[C@@H](CCCNC(=N)N)C(=O)N[C@@H](C)C(=O)N[C@@H](CCC(N)=O)C(=O)N[C@@H](CC(=O)O)C(=O)N[C@@H](Cc1ccccc1)C(=O)N[C@H](C(=O)N[C@@H](CCCCNC(=O)CC[C@H](NC(=O)CC[C@H](NC(=O)COCCOCCNC(=O)COCCOCCNC(=O)CC[C@H](NC(=O)CCCCCCCCCCCCCCCCC(=O)O)C(=O)O)C(=O)O)C(=O)O)C(=O)N[C@@H](Cc1c[nH]c2ccccc12)C(=O)N[C@@H](CC(C)C)C(=O)N[C@@H](CC(C)C)C(=O)N[C@@H](CO)C(=O)N[C@H](C(=O)O)[C@@H](C)O)C(C)C [Example 11, N^ε24-[(4S)-4-carboxy-4-[[(4S)-4-carboxy-4-[[2-[2-[2-[[2-[2-[2-[[(4S)-4-carboxy-4-(17-carboxyheptadecanoylamino)butanoyl]amino]ethoxy]ethoxy]acetyl]amino]ethoxy]ethoxy]acetyl]amino]butanoyl]amino]butanoyl]-[Ile^16,Lys^24,Leu^27,Ser^28]-Glucagon] | 0.084 | 6.2
2 | CC(C)C[C@H](NC(=O)[C@H](Cc1c[nH]c2ccccc12)NC(=O)[C@H](CCCCNC(=O)CC[C@H](NC(=O)CC[C@H](NC(=O)COCCOCCNC(=O)COCCOCCNC(=O)CC[C@H](NC(=O)CCCCCCCCCCCCCCCCC(=O)O)C(=O)O)C(=O)O)C(=O)O)NC(=O)[C@@H](NC(=O)[C@H](Cc1ccccc1)NC(=O)[C@H](CC(=O)O)NC(=O)[C@H](CCC(N)=O)NC(=O)[C@H](C)NC(=O)[C@H](CCCNC(=N)N)NC(=O)[C@H](CCCNC(=N)N)NC(=O)[C@@H](NC(=O)[C@H](CC(=O)O)NC(=O)[C@H](CC(C)C)NC(=O)[C@H](Cc1ccc(O)cc1)NC(=O)[C@H](CCCCN)NC(=O)[C@H](CO)NC(=O)[C@H](Cc1ccc(O)cc1)NC(=O)[C@H](CC(=O)O)NC(=O)[C@H](CO)NC(=O)[C@@H](NC(=O)[C@H](Cc1ccccc1)NC(=O)[C@@H](NC(=O)CNC(=O)[C@H](CCC(N)=O)NC(=O)[C@H](CO)NC(=O)[C@@H](N)Cc1c[nH]cn1)[C@@H](C)O)[C@@H](C)O)[C@@H](C)O)C(C)C)C(=O)N[C@@H](CC(C)C)C(=O)N[C@@H](CO)C(=O)N[C@H](C(=O)O)[C@@H](C)O [Example 12, N^ε24-[(4S)-4-carboxy-4-[[(4S)-4-carboxy-4-[[2-[2-[2-[[2-[2-[2-[[(4S)-4-carboxy-4-(17-carboxyheptadecanoylamino)butanoyl]amino]ethoxy]ethoxy]acetyl]amino]ethoxy]ethoxy]acetyl]amino]butanoyl]amino]butanoyl]-[Thr^16,Lys^24,Leu^27,Ser^28]-Glucagon] | 0.075 | 7.0
3 | CC(C)C[C@H](NC(=O)[C@H](Cc1ccc(O)cc1)NC(=O)[C@H](CCCNC(=N)N)NC(=O)[C@H](CO)NC(=O)[C@H](Cc1ccc(O)cc1)NC(=O)[C@H](CC(=O)O)NC(=O)[C@H](CO)NC(=O)[C@@H](NC(=O)[C@H](Cc1ccccc1)NC(=O)[C@@H](NC(=O)CNC(=O)[C@H](CCC(N)=O)NC(=O)[C@H](CO)NC(=O)[C@@H](N)Cc1c[nH]cn1)[C@@H](C)O)[C@@H](C)O)C(=O)N[C@@H](CC(=O)O)C(=O)N[C@@H](Cc1ccccc1)C(=O)N[C@@H](CCCNC(=N)N)C(=O)N[C@@H](CCCNC(=N)N)C(=O)N[C@@H](C)C(=O)N[C@@H](CCC(N)=O)C(=O)N[C@@H](CC(=O)O)C(=O)N[C@@H](Cc1ccccc1)C(=O)N[C@H](C(=O)N[C@@H](CCCCNC(=O)CC[C@H](NC(=O)CC[C@H](NC(=O)COCCOCCNC(=O)COCCOCCNC(=O)CC[C@H](NC(=O)CCCCCCCCCCCCCCCCC(=O)O)C(=O)O)C(=O)O)C(=O)O)C(=O)N[C@@H](Cc1c[nH]c2ccccc12)C(=O)N[C@@H](CC(C)C)C(=O)N[C@@H](CC(C)C)C(=O)N[C@@H](CO)C(=O)N[C@H](C(=O)O)[C@@H](C)O)C(C)C [Example 17, N^ε24-[(4S)-4-carboxy-4-[[(4S)-4-carboxy-4-[[2-[2-[2-[[2-[2-[2-[[(4S)-4-carboxy-4-(17-carboxyheptadecanoylamino)butanoyl]amino]ethoxy]ethoxy]acetyl]amino]ethoxy]ethoxy]acetyl]amino]butanoyl]amino]butanoyl]-[Arg^12,Phe^16,Lys^24,Leu^27,Ser^28]-Glucagon] (H-HSQGTFTSDYSRYLDFRRAQDFVK([γGlu-γGlu-AEEA-AEEA-γGlu-C18 diacid])WLLST-OH) | 1.64 | 3.1
4 | CC(C)C[C@H](NC(=O)[C@H](CC(=O)O)NC(=O)[C@H](CC(C)C)NC(=O)[C@H](Cc1ccc(O)cc1)NC(=O)[C@H](CCCNC(=N)N)NC(=O)[C@H](CO)NC(=O)[C@H](Cc1ccc(O)cc1)NC(=O)[C@H](CC(=O)O)NC(=O)[C@H](CO)NC(=O)[C@@H](NC(=O)[C@H](Cc1ccccc1)NC(=O)[C@@H](NC(=O)CNC(=O)[C@H](CCC(N)=O)NC(=O)[C@H](CO)NC(=O)[C@@H](N)Cc1c[nH]cn1)[C@@H](C)O)[C@@H](C)O)C(=O)N[C@@H](CCCNC(=N)N)C(=O)N[C@@H](CCCNC(=N)N)C(=O)N[C@@H](C)C(=O)N[C@@H](CCC(N)=O)C(=O)N[C@@H](CC(=O)O)C(=O)N[C@@H](Cc1ccccc1)C(=O)N[C@H](C(=O)N[C@@H](CCCCNC(=O)CC[C@H](NC(=O)CC[C@H](NC(=O)COCCOCCNC(=O)COCCOCCNC(=O)CC[C@H](NC(=O)CCCCCCCCCCCCCCCCC(=O)O)C(=O)O)C(=O)O)C(=O)O)C(=O)N[C@@H](Cc1c[nH]c2ccccc12)C(=O)N[C@@H](CC(C)C)C(=O)N[C@@H](CC(C)C)C(=O)N[C@H](C(=O)N[C@H](C(=O)O)[C@@H](C)O)[C@@H](C)O)C(C)C [Example 19, N^ε24-[(4S)-4-carboxy-4-[[(4S)-4-carboxy-4-[[2-[2-[2-[[2-[2-[2-[[(4S)-4-carboxy-4-(17-carboxyheptadecanoylamino)butanoyl]amino]ethoxy]ethoxy]acetyl]amino]ethoxy]ethoxy]acetyl]amino]butanoyl]amino]butanoyl]-[Arg^12,Leu^16,Lys^24,Leu^27,Thr^28]-Glucagon] (H-HSQGTFTSDYSRYLDLRRAQDFVK([γGlu-γGlu-AEEA-AEEA-γGlu-C18 diacid])WLLTT-OH) | 0.754 | 4.3
5 | CC(C)C[C@H](NC(=O)[C@H](Cc1ccc(O)cc1)NC(=O)[C@H](CCCNC(=N)N)NC(=O)[C@H](CO)NC(=O)[C@H](Cc1ccc(O)cc1)NC(=O)[C@H](CC(=O)O)NC(=O)[C@H](CO)NC(=O)[C@@H](NC(=O)[C@H](Cc1ccccc1)NC(=O)[C@@H](NC(=O)CNC(=O)[C@H](CCC(N)=O)NC(=O)[C@H](CO)NC(=O)[C@@H](N)Cc1c[nH]cn1)[C@@H](C)O)[C@@H](C)O)C(=O)N[C@@H](CC(=O)O)C(=O)N[C@@H](CCCNC(=N)N)C(=O)N[C@@H](CCCNC(=N)N)C(=O)N[C@@H](CCCNC(=N)N)C(=O)N[C@@H](C)C(=O)N[C@@H](CCC(N)=O)C(=O)N[C@@H](CC(=O)O)C(=O)N[C@@H](Cc1ccccc1)C(=O)N[C@H](C(=O)N[C@@H](CCCCNC(=O)CC[C@H](NC(=O)CC[C@H](NC(=O)COCCOCCNC(=O)COCCOCCNC(=O)CC[C@H](NC(=O)CCCCCCCCCCCCCCCCC(=O)O)C(=O)O)C(=O)O)C(=O)O)C(=O)N[C@@H](Cc1c[nH]c2ccccc12)C(=O)N[C@@H](CC(C)C)C(=O)N[C@@H](CC(C)C)C(=O)N[C@@H](CO)C(=O)N[C@H](C(=O)O)[C@@H](C)O)C(C)C [Example 20, N^ε24-[(4S)-4-carboxy-4-[[(4S)-4-carboxy-4-[[2-[2-[2-[[2-[2-[2-[[(4S)-4-carboxy-4-(17-carboxyheptadecanoylamino)butanoyl]amino]ethoxy]ethoxy]acetyl]amino]ethoxy]ethoxy]acetyl]amino]butanoyl]amino]butanoyl]-[Arg^12,Arg^16,Lys^24,Leu^27,Ser^28]-Glucagon] (H-HSQGTFTSDYSRYLDRRRAQDFVK([γGlu-γGlu-AEEA-AEEA-γGlu-C18 diacid])WLLST-OH) | 0.355 | 10.4

From patent US9486506B2 (Novo Nordisk A/S, priority 2011, dated 2016)
